Patent publication US11332483B2, “Naphthoquinone containing gold carbene complexes and methods of uses thereof” (BOARD OF REGENTS, THE UNIVERSITY OF TEXAS SYSTEM, priority 2017, dated 2022)
Like-named read-outs stand apart in the source and are kept apart here.

Columns and labels:
[1] = tested on: thioredoxin reductase (TrxR) in A549 cells; test: Lipoate reduction assay of thioredoxin reductase activity in live cells; type: cell-based, human
Description: To assess whether any or all of the present gold complexes could serve as TrxR inhibitors, standard tests involving the reduction of the oxidized form of the cell-permeable cofactor lipoate to its corresponding reduced form, dihydrolipoate, were carried out. […] [Cl] and 5 (cocktail), auranofin, and doxorubicin for 6 h. Post treatment, the live cells were monitored colorimetrically over 180 min for their ability to reduce lipoate (FIG. 5A).
Cells were harvested and seeded at a density of 10,000 cells/well A549 in 96-well culture plates. They were then incubated overnight at 37° C. and 5% CO2. The next day, appropriate serial dilutions of drug stock in culture media were performed, and 100 μL of the appropriate solution were added to each well. Cells were returned to the incubator for 6 h. Afterwards, the liquid was then removed from each well by vacuum aspiration and replaced by 100 μL of 5 mM lipoate (Tokyo Chemical Industry Co., Ltd. L0207) and 1 mM DTNB (Acros Organics 117540050) in HBSS (Life tech 14025-092). The absorbance of each well at […] was recorded immediately and once every 20 min for three h on a microplate reader (Molecular Devices, Sunnyvale, Calif.). Plates were covered with aluminum foil between readings.

A549 cancer cells = details: A549, 1.25 μM
Description: All cells were selectively stained for visualization of ROS accentuation (green, CM-H2DCFDA), mitochondria (red, Mitotracker Red), and nuclei (blue, Hoechst).
Cells were then incubated with 1.25 μM complex at 37° C. 4 h. Post incubation, the media was removed and cells were washed (2×) with PBS. Cells were then incubated with 1 μM CM-H2DCFDA (Lifetech C6827) in PBS at 37° C. for 15 min. The dye-PBS solution was removed and cells were washed with PBS (2×). To the cells was added a PBS solution containing 1 ug/mL Hoechst 33342 (Lifetech H1399) and 50 nM Mitotracker Red FM (Lifetech M22425) for 30 min at 37° C. After incubation, the dye-PBS solution was removed and cells were washed with PBS (2×). Cells were then imaged fluorescently on a Leica SP5 X White light laser confocal microscope. Images were taken with a 63×, NA 1.4 objective.

[2] = Electrochemical analysis (differential pulse voltammetry) in DMSO; type: physicochemical; details: 0.1M [N(nBu)4][PF6], 0.1 mM analyte, vs SCE
Description: [Cl] (Guth et al., 2011; Gómez et al., 2003).
1,3-Dimesitylnapthoquinimidazolium chloride (Sanderson et al., 2006; Tennyson et al., 2010), (1,3-dimesityl-4,5-naphthoquino-imidazol-2-ylidene)-silver(I) chloride (Sanderson et al., 2006; Tennyson et al., 2010), (C4H2S)AuCl (Hashmi, et al., 2010) were prepared according to the literature procedures. All other reagents were purchased from commercial sources and used as received, including: [((CH3)3Si)2N]Na (NaHMDS) and silver(I) oxide. CD2Cl2 (99.9%) was purchased from Acros Laboratories in glass ampules and used as received. Solvents were either dried with a solvent purification system from the Inert Innovative Technology, Inc. (dichloromethane, diethyl ether, hexanes, tetrahydrofuran and toluene) or freshly distilled over 3 Å molecular sieves and degassed using three consecutive freeze-pump-thaw cycles prior to use. UV-vis spectra were obtained at ambient temperature with a Hewlett-Packard 8452A diode array spectrophotometer with molar absorptivities reported in M^−1 cm^−1. ^1H and ^13C NMR spectra were recorded on Bruker 300 MHz spectrometer. Spectra were referenced to the residual solvent as an internal standard, for ^1H NMR: CD2Cl2, 5.32 ppm and ^13C NMR: CD2Cl2, 53.84 ppm. High-resolution mass spectra (HRMS) were obtained with an Agilent Technologies 6530 Accurate Mass Q-TOF LC/MS (ESI) and are reported as m/z (relative intensity). Electroanalytical measurements were performed on a CHI620E electrochemical workstation using a silver wire quasi-reference electrode, a platinum disk working electrode and a Pt wire auxiliary electrode in a three-electrode cell under an atmosphere of nitrogen. […] All potentials listed herein were determined by differential pulse voltammetry and referenced to a saturated calomel electrode (SCE) by shifting ferrocene^0/+ to 0.435 V (DMSO) (Aranzaes et al., 2006). Spectroelectrochemistry measurements were obtained at ambient temperature with a custom designed three-electrode cell using Hewlett-Packard 8452A diode array spectrophotometer and CHI620E. Elemental analyses were performed by Midwest Microlab, LLC in Indianapolis, Ind. […] Trypsin (Hyclone SH30236.01) and Dulbecco's Phosphate Buffer Saline (Sigma R5886) were used for general cell maintenance and harvesting. Cell lines were obtained from the ATCC (A549 and PC-3) and Prof. Zahid Siddik at MD Anderson (A2780 and A2780CP). Thiazolyl blue tetrazolium bromide (Alfa Aesar L11939) was used for cell proliferation assays. Cell culture plastic ware consisted of generic T-75 flasks, 80.5 mm diameter culture dishes, and treated 96-well plates.

[3] = tested on: fetal bovine serum proteins
Description: To assess potential drug protein interactions, samples of fetal bovine serum (FBS) were treated with 25 μM 1, 3, and auranofin prior to incubating at 37° C. Aliquots were taken and the free Au (non-protein bound, methanolic extracts) content was analyzed by ICP-MS (FIG. 3B).
A 25 μM solution of each compound in 3 mL warm FBS was made. The solutions were kept at 37° C. Over time, 100 μL aliquots of each solution were taken and precipitated into 400 μL cold methanol. Precipitated aliquots were stored at −80° C. The methanolic suspensions were then centrifuged at 11,000 rcf for 5 min in an Edvotek microcentrifuge. The supernatants were pipetted into new microcentrifuge tubes. Samples were prepared for ICP-MS by adding 200 μL supernatant from each sample to 2 mL 3% Trace Metal Grade HCl. Time points were at addition of compound (T0), 4, 6.25, 9.75, 12, 24, 48, 72, and 100 h.

PC-3 prostate (p53 null) = test: Cell proliferation (MTT) assay in PC-3 prostate cells; type: cell-based; details: Table 3; error is standard error of the mean
Description: Further anti-proliferation studies were carried out with complex 1 and its naphthoquinone component 4[H][Cl] using the following cell lines: A2780 ovarian (a wt-p53 cell line sensitive to platinum treatment), 2780CP ovarian (isogenic to A2780 but expressing multi-drug resistance (MDR)), and PC-3 prostate (p53 null) (Table 3).
Cells were harvested and seeded into 96-well culture plates (Costar 07-200-90) in 100 μL of culture media. They were allowed to incubate overnight at 37° C. in the presence of 5% CO2. A549 was seeded at a density of 1000 cells/well, A2780 at 2500 cells/well, A2780CP at 3000 cells/well, and PC-3 at 2000 cells/well. The next day, appropriate serial dilutions of drug stocks in culture media were made. To each well of a 96 well plate was added 100 μL of the appropriate solution. After a total of three days, a […] aliquot of 3 mg/mL tetrazolium dye, 344,5-dimethylthiazol-2-yl)-2,5-diphenyltetrazolium bromide (Alfa Aesar L11939) was added to each well, followed by a 4 hr incubation period at 37° C. The medium was then removed, the resulting formazan was dissolved in […] DMSO and the respective absorbances were measured at 560-650 nm using a microplate reader (Molecular Devices, Sunnyvale, Calif.). Absorbance values were corrected for background and then normalized to wells containing untreated cells to allow for plate-to-plate comparisons. […]

A549 lung cancer cells = test: Cell proliferation (MTT) assay in A549 lung cancer cells; type: cell-based, human
Description: Cells were harvested and seeded into 96-well culture plates (Costar 07-200-90) in 100 μL of culture media. They were allowed to incubate overnight at 37° C. in the presence of 5% CO2. A549 was seeded at a density of 1000 cells/well, A2780 at 2500 cells/well, A2780CP at 3000 cells/well, and PC-3 at 2000 cells/well. The next day, appropriate serial dilutions of drug stocks in culture media were made. To each well of a 96 well plate was added 100 μL of the appropriate solution. After a total of three days, a […] aliquot of 3 mg/mL tetrazolium dye, 344,5-dimethylthiazol-2-yl)-2,5-diphenyltetrazolium bromide (Alfa Aesar L11939) was added to each well, followed by a 4 hr incubation period at 37° C. The medium was then removed, the resulting formazan was dissolved in […] DMSO and the respective absorbances were measured at 560-650 nm using a microplate reader (Molecular Devices, Sunnyvale, Calif.). Absorbance values were corrected for background and then normalized to wells containing untreated cells to allow for plate-to-plate comparisons. The data are shown as mean inhibition of proliferation or growth as a percentage of control cells and are from 2-3 replicate experiments. Resulting dose response curves were subjected to linear regression analysis (Origin by OriginLab, Inc.) for determination of IC50 values.

Compound: Cc1cc(C)c(-n2c3c([n+](-c4c(C)cc(C)cc4C)[c]2[Au-][c]2n(-c4c(C)cc(C)cc4C)c4c([n+]2-c2c(C)cc(C)cc2C)C(=O)c2ccccc2C4=O)C(=O)c2ccccc2C3=O)c(C)c1.[Cl][Ag-][Cl] [Compound 1, [Bis(1,3-dimesityl-4,5-naphthoquino-imidazol-2-ylidene)-gold(I)] [Silver(I)dichloride]]
- TrxR activity by lipoate reduction, time and dose dependence ([1]; A549, in words): time (FIG. 12A) and dose (FIG. 12B) dependent inhibition of enzyme activity
- inhibition of TrxR (lipoate reduction) ([1]; A549, low concentrations (0.1-0.6 μM), 6 h): inhibition of TrxR was apparent
- subcellular loci of ROS accentuation (A549 cancer cells): ROS accentuation is arising from mitochondria
- E1/2 (V) DPV, first reduction, formation of semiquinone radical [2]: −0.42 V
- E1/2^b (V) DPV, second reduction, formation of quinone dianion [2]: −1.31 V
- free Au (non-protein bound) content as a function of time [3]: minimal changes in the free Au levels
- IC50 (PC-3 prostate (p53 null)): 96 ± 17 nM
- Fold Difference relative to 1 (A549 lung cancer cells; A549 IC50 relative to complex 1): 1
- IC50 (A549 lung cancer cells; A549 lung cancer cells, MTT, 72 h, read-out: IC50): 73 ± 16 nM
- IC50 (A549 lung cancer cells; Table 3, error is standard error of the mean, read-out: IC50 A549 Lung): 73 ± 16 nM
